Experimental data from patent US8546401B2, “5,6-disubstituted oxindole-derivatives and use thereof for treating vasopressin-dependent diseases” (AbbVie Deutschland GmbH & Co. KG, priority 2007, dated 2013).
pKi: −log10 of the molar value.

Tests used:
[1] = target: T1, human vasopressin V1b receptor (Homo sapiens, UniProt P47901); test: Vasopressin V1b receptor binding assay; conditions: CHO-K1 membranes, 3H-AVP displacement
T1 construct: expressed in transfected cells; host or cells: CHO-K1 (cell line hV1b_3H2_CHO), membrane preparation
T1 sequence (P47901 1-424): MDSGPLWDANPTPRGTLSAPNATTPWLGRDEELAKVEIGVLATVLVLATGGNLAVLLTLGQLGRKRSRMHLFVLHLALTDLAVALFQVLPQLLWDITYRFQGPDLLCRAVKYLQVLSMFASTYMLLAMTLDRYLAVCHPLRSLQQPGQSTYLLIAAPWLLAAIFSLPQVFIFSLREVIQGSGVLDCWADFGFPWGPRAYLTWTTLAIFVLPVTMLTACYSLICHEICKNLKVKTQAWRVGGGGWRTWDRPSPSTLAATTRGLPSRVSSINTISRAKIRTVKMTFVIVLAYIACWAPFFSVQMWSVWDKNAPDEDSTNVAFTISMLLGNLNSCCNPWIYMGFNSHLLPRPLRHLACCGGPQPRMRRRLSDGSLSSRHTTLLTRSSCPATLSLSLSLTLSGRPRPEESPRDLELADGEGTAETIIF
Protocol: 1. Vasopressin V1b Receptor Binding Assay:
The test substances were dissolved in a concentration of 10^−2 M in DMSO and further diluted to 5×10^−4 M to 5×10^−3 M. These serial DMSO predilutions were diluted 1:10 with assay buffer. The substance concentration was further diluted 1:5 in the assay mixture (2% DMSO in the mixture).
(§1) CHO-K1 cells with stably expressed human vasopressin V1b receptor (clone 3H2) were harvested and homogenized in 50 mM Tris-HCl and in the presence of protease inhibitors (Roche complete Mini #1836170) using a Polytron homogenizer at intermediate setting for 2×10 seconds, and subsequently centrifuged at 40 000×g for 1 h. The membrane pellet was again homogenized and centrifuged as described and subsequently taken up in 50 mM Tris-HCl, pH 7.4, homogenized and stored in aliquots frozen in liquid nitrogen at −190° C.
(§2) The binding assay was carried out by the method based on that of Tahara et al. (Tahara A et al., Brit. J. Pharmacol. 125, 1463-1470 (1998)).
(§3) The incubation buffer was: 50 mM Tris, 10 mM MgCl2, 0.1% BSA, pH 7.4.
In the assay mixture (250 μl), membranes (50 μg/ml protein in incubation buffer) from CHO-K1 cells with stably expressed human V1b receptors (cell line hV1b—3H2_CHO) were incubated with 1.5 nM ^3H-AVP (8-Arg-vasopressin, PerkinElmer #18479) in incubation buffer (50 mM Tris, 10 mM MgCl2, 0.1% BSA, pH 7.4) (total binding) or additionally with increasing concentrations of test substance (displacement experiment). The nonspecific binding was determined with […] (Bachem #H1780). All determinations were carried out as triplicate determinations. After incubation (60 minutes at room temperature), the free radioligand was filtered off by vacuum filtration (Skatron cell harvester 7000) through Wathman GF/B glass fiber filter mats, and the filters were transferred into scintillation vials. The liquid scintillation measurement took place in a model 2000 or 2200CA Tricarb instrument (Packard). Conversion of the measured cpm into dpm was carried out with the aid of a standard quench series.
(§4) The binding parameters were calculated by nonlinear regression in SAS. The algorithms of the program operate in analogy to the LIGAND analysis program (Munson P J and Rodbard D, Analytical Biochem. 107, 220-239 (1980)). The Kd of ^3H-AVP for the recombinant human V1b receptors is 0.4 nM and was used to determine the Ki.

[2] = target: T2, human vasopressin V1a receptor (Homo sapiens, UniProt P37288); test: Vasopressin V1a receptor binding assay; conditions: selectivity quotient, human receptors
T2 construct: expressed in transfected cells; host or cells: CHO-K1 (cell line hV1a_5_CHO), membrane preparation
T2 sequence (P37288 whole entry): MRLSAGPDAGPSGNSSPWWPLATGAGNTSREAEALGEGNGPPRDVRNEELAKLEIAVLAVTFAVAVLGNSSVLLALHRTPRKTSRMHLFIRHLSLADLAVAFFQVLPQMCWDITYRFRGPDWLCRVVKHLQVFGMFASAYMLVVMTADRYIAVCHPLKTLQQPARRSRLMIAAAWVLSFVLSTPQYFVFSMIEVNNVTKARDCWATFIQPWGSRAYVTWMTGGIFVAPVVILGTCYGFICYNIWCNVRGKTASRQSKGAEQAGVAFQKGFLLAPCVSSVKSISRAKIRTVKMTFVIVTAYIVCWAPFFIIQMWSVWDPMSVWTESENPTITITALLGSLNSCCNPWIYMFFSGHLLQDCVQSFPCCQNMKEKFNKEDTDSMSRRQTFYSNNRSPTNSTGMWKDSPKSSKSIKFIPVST
Protocol: 2. Vasopressin V1a Receptor Binding Assay:
The test substances were dissolved in a concentration of 10^−2 M in DMSO. Further dilution of these DMSO solutions took place in incubation buffer (50 mM Tris, 10 mM MgCl2, 0.1% BSA, pH 7.4).
as §1, with “V1a” for “V1b”, “5)” for “3H2)”
as §2, §3
In the assay mixture (250 μl), membranes (20 μg/ml protein in incubation buffer) from CHO-K1 cells with stably expressed human V1a receptors (cell line hV1a—5_CHO) were incubated with 0.04 nM ^125I-AVP (8-Arg-vasopressin, NEX 128) in incubation buffer (50 mM Tris, 10 mM MgCl2, 0.1% BSA, pH 7.4) (total binding) or additionally with increasing concentrations of test substance (displacement experiment). The nonspecific binding was determined with 1 μM AVP (Bachem #H1780). Triplicate determinations were carried out.
After incubation (60 minutes at room temperature), the free radioligand was filtered off by vacuum filtration (Skatron cell harvester 7000) through Wathman GF/B glass fiber filter mats, and the filters were transferred into scintillation vials.
The liquid scintillation measurement took place in a model 2000 or 2200CA Tricarb instrument (Packard). Conversion of the measured cpm into dpm was carried out with the aid of a standard quench series.
as §4, with “^125I-AVP” for “^3H-AVP”, “hV1a” for “human V1b”, “was determined in saturation experiments. A Kd of 1.33” for “is 0.4”, “nM” for “nM and”

human oxytocin receptors = target: T3, human oxytocin receptors (Homo sapiens, UniProt P30559); test: Oxytocin receptor binding assay; conditions: selectivity quotient
T3 construct: expressed in transfected cells; host or cells: HEK-293, transient expression; lysed and homogenized cells
T3 sequence (P30559 1-389): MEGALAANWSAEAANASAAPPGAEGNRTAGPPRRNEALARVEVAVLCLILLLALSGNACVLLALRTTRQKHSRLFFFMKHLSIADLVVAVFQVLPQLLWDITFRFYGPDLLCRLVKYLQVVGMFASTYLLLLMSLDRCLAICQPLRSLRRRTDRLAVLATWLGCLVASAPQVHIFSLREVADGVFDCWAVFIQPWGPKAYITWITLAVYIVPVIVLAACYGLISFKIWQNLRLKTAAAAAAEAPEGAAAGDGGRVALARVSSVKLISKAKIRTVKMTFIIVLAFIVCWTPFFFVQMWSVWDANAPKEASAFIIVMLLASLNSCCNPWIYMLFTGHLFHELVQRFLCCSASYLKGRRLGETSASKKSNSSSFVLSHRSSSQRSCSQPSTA
Protocol: 4. Oxytocin Receptor Binding Assay
The substances were dissolved in a concentration of 10^−2 M in DMSO and diluted with incubation buffer (50 mM Tris, 10 mM MgCl2, 0.1% BSA, pH 7.4).
Confluent HEK-293 cells with transiently expressing recombinant human oxytocin receptors were centrifuged at 750×g at room temperature for 5 minutes. The residue was taken up in ice-cold lysis buffer (50 mM Tris-HCl, 10% glycerol, pH 7.4 and Roche complete protease inhibitor) and subjected to an osmotic shock at 4° C. for 20 minutes. The lyzed cells were then centrifuged at 750×g at 4° C. for 20 minutes, the residue was taken up in incubation buffer, and aliquots of 10^7 cells/ml were prepared. The aliquots were frozen at −80° C. until used.
On the day of the experiment, the cells were thawed, diluted with incubation buffer and homogenized using a Multipette Combitip (Eppendorf, Hamburg). The reaction mixture of 0.250 ml was composed of 2 to 5×10^4 recombinant cells, 3-4 nM ^3H-oxytocin (PerkinElmer, NET 858) in the presence of test substance (inhibition plot) or only incubation buffer (total binding). The nonspecific binding was determined with 10^−6 M oxytocin (Bachem AG, H2510). Triplicate determinations were set up. Bound and free radioligand were separated by filtration under vacuum with Whatman GF/B glass fiber filters with the aid of a Skatron cell harvester 7000. The bound radioactivity was determined by liquid scintillation measurement in a Tricarb Beta counter, model 2000 or 2200CA (Packard).
The binding parameters were calculated by nonlinear regression analysis (SAS) in analogy to the LIGAND program of Munson and Rodbard (Analytical Biochem 1980; 107: 220-239). The Kd of ^3H-oxytocin for the recombinant hOT receptors is 7.6 nM and was used to determine the Ki.

SMILES	pKi [1]	Ki(h − V1a)/Ki(h − V1b)* [2]	Ki(h − OT)/Ki(h − V1b)* (human oxytocin receptors)
CCOc1ccccc1C1(NC(=O)N2CCN(C3CCN(C)CC3)CC2)C(=O)N(S(=O)(=O)c2ccc(OC)cc2)c2cc(F)c(C#N)cc21 (stereo not drawn) [Example 10, 4-(1-Methylpiperidin-4-yl)piperazine-1-[5-cyano-3-(2-ethoxyphenyl)-6-fluoro-1-(4-methoxyphenylsulfonyl)-2-oxo-2,3-dihydro-1H-indol-3-yl]carboxamide]	8.00 to 9.00	++ (25-75)	+ (10-<25)
CCOc1ccccc1C1(NC(=O)N2CCN(C3CCN(CC)CC3)CC2)C(=O)N(S(=O)(=O)c2ccc(OC)cc2OC)c2cc(F)c(C#N)cc21 (stereo not drawn) [Example 11, 4-(1-Ethylpiperidin-4-yl)piperazine-1-[5-cyano-1-(2,4-dimethoxyphenylsulfonyl)-3-(2-ethoxyphenyl)-6-fluoro-2-oxo-2,3-dihydro-1H-indol-3-yl]carboxamide]	> 9.00	+++ (>75)	+++ (>75)
CCOc1ccccc1C1(NC(=O)N2CCN(C3CCN(CC)CC3)CC2)C(=O)N(S(=O)(=O)c2ccc(OC)cc2)c2cc(F)c(C#N)cc21 (stereo not drawn) [Example 12, 4-(1-Ethylpiperidin-4-yl)piperazine-1-[5-cyano-3-(2-ethoxyphenyl)-6-fluoro-1-(4-methoxyphenylsulfonyl)-2-oxo-2,3-dihydro-1H-indol-3-yl]carboxamide]	8.00 to 9.00	+++ (>75)	+++ (>75)
CCOc1ccccc1C1(NC(=O)N2CCN(C3CCN(CC)CC3)CC2)C(=O)N(S(=O)(=O)c2ccccc2)c2cc(F)c(C#N)cc21 (stereo not drawn) [Example 13, 4-(1-Ethylpiperidin-4-yl)piperazine-1-[1-phenylsulfonyl-5-cyano-3-(2-ethoxyphenyl)-6-fluoro-2-oxo-2,3-dihydro-1H-indol-3-yl]carboxamide]	8.00 to 9.00	++ (25-75)	+++ (>75)
CCOc1ccccc1C1(NC(=O)N2CCC(N3CCN(C)CC3)CC2)C(=O)N(S(=O)(=O)c2ccc(OC)cc2OC)c2cc(F)c(C#N)cc21 (stereo not drawn) [Example 14, 4-(4-Methylpiperazin-1-yl)piperidine-1-[5-cyano-1-(2,4-dimethoxyphenylsulfonyl)-3-(2-ethoxyphenyl)-6-fluoro-2-oxo-2,3-dihydro-1H-indol-3-yl]carboxamide]	8.00 to 9.00	+ (10-<25)	+++ (>75)
CCOc1ccccc1C1(NC(=O)N2CCC(N3CCN(C)CC3)CC2)C(=O)N(S(=O)(=O)c2ccc(OC)cc2)c2cc(F)c(C#N)cc21 (stereo not drawn) [Example 15, 4-(4-Methylpiperazin-1-yl)piperidine-1-[5-cyano-3-(2-ethoxyphenyl)-6-fluoro-1-(4-methoxyphenylsulfonyl)-2-oxo-2,3-dihydro-1H-indol-3-yl]carboxamide]	8.00 to 9.00	+ (10-<25)	+++ (>75)
CCOc1ccccc1C1(NC(=O)N2CCC(N3CCN(CC)CC3)CC2)C(=O)N(S(=O)(=O)c2ccc(OC)cc2OC)c2cc(F)c(C#N)cc21 (stereo not drawn) [Example 16, 4-(4-Ethylpiperazin-1-yl)piperidine-1-[5-cyano-1-(2,4-dimethoxyphenylsulfonyl)-3-(2-ethoxyphenyl)-6-fluoro-2-oxo-2,3-dihydro-1H-indol-3-yl]carboxamide]	> 9.00	+ (10-<25)	+++ (>75)
CCOc1ccccc1C1(NC(=O)N2CCC(N3CCN(CC)CC3)CC2)C(=O)N(S(=O)(=O)c2ccc(OC)cc2)c2cc(F)c(C#N)cc21 (stereo not drawn) [Example 17, 4-(4-Ethylpiperazin-1-yl)piperidine-1-[5-cyano-3-(2-ethoxyphenyl)-6-fluoro-1-(4-methoxyphenylsulfonyl)-2-oxo-2,3-dihydro-1H-indol-3-yl]carboxamide]	8.00 to 9.00	+ (10-<25)	+++ (>75)
CCOc1ccccc1C1(NC(=O)N2CCC(N3CCN(CC)CC3)CC2)C(=O)N(S(=O)(=O)c2ccccc2)c2cc(F)c(C#N)cc21 (stereo not drawn) [Example 18, 4-(4-Ethylpiperazin-1-yl)piperidine-1-[1-phenylsulfonyl-5-cyano-3-(2-ethoxyphenyl)-6-fluoro-2-oxo-2,3-dihydro-1H-indol-3-yl]carboxamide]	8.00 to 9.00	+ (10-<25)	+++ (>75)
